Measured values reported in publication PMC5353646, “Allosteric modulation of peroxisomal membrane protein recognition by farnesylation of the peroxisomal import receptor PEX19” (Nature Communications, 2017).

Legend:
[1] = test system: PEX19 CTD I195K; assay: Fluorescence polarization, ALDP peptide binding to PEX19 CTD I195K; parameters: species or system human; details: with or without farnesylation, FITC-labelled ALDP peptide 20 nM, triplicate (n = 3)
Description: (§1) ALDP peptide (62-AAKAGMNRVFLQRLL-76) fused N-terminally with fluorescein isothiocyanate (FITC), was purchased from Peptide Specialty Laboratories GmbH. The lyophilized powder was dissolved in 1 ml water resulting in a 5 mM stock solution. Overnight dialysis against buffer containing 50 mM Tris pH 8.0, 50 mM NaCl, removed trifluoroacetate counterions. For the determination of each binding curve a 12 point titration was performed with constant concentration of 20 nM labelled peptide with increasing concentrations of PEX19 CTD variants. Starting concentration of PEX19 CTD was 1 mM with 12 serial dilutions reaching 0.5 μM. Reaction mixtures were then transferred into 96-well Optiplate and measured as triplicates in PerkinElmer EnVision plate reader. […]
(§2) Supplementary Figure 6: ALDP af finity measurement for PEX19 CTD proteins using a fluorescence polarization assay . Polarization plots as a function of protein concentration for the direct titration of PEX19 non-farnesylated (black) and farnesylated (red) forms (wild type and residue spedific mutants) into fluorescein-labeled ALDP peptide. […]
(§3) (also on this page, place not known: assay. affinity Fluorescence polarization (mP) wt wtfarn Fluorescence polarization (mP) M179Rfarn 0.00 1.00 Fluorescence polarization (mP) M255Rfarn 0.00 1.00 Fluorescence polarization (mP) I195Kfarn Kd Kd /uni03BCM)

[2] = biological target: T1, non-farnesylated PEX19 CTD (Homo sapiens, UniProt P40855); assay: NMR titration of non-farnesylated PEX19 CTD with PMP peptides; type: binding; details: 100 μM PEX19 CTD; peptide molar ratio up to 10:1; 1H,15N HSQC; 298 K
T1 construct: we studied the human PEX19 CTD (residues 161–299) that includes the native C-terminus; hexahistidine (TEV-cleavable) (cleaved yes); made in house; host or cells: Escherichia coli BL21 (DE3)
T1 sequence (P40855 161-299): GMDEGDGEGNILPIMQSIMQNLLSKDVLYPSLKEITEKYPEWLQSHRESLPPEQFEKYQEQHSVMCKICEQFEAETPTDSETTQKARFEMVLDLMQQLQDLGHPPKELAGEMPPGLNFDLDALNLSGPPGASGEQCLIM
Description: Figure 4 NMR analysis of PMP binding to non-farnesylated and farnesylated PEX19 CTD. (a) Comparison of ^1H,^15N HSQC spectra of 100 μM non-farnesylated CTD free (black) and in the presence of 10-fold excess of the ALDP-derived peptide (cyan). (b) Comparison of ^1H,^15N HSQC spectra of 100 μM farnesylated PEX19 CTD free (black) and in the presence of 5 (green) and 10 (red) molar ratio of the ALDP peptide. The grey dashed line indicates the position of additional baseline correction applied to remove noise from DMF signals in the peptide stock solution. (c) Chemical shift perturbation of Met/Ile methyl groups seen in ^1H,^13C HSQC experiments upon increasing concentration of ALDP peptide. […] (d) Quantification of chemical shift perturbation (CSP) of amide and methyl groups with respect to the PEX19 amino acid sequence. […] Grey colour refers to residues, which could not be analysed.
NMR spectra were acquired at 298 K on a Bruker Avance III 600-MHz spectrometer with a TCI cryo-probe head, an Avance III 750-MHz spectrometer with a TXI probe head, or an Avance 900 instrument with a TXI cryo-probe head. Spectra were processed using NMRPipe[31] and analysed with Sparky[32]. […] Backbone and side chain assignments were obtained from HNCA, HNCACB, CBCA(CO)NH, H(C)CH-TOCSY and (H)CCH-TOCSY spectra. ^13C- and ^15N- edited NOESY spectra with a mixing time of 70 ms were recorded to derive distance restraints. […]

[3] = biological target: T2, farnesylated PEX19 CTD (Homo sapiens, UniProt P40855); assay: NMR titration of farnesylated PEX19 CTD with PMP peptides; type: binding; details: 1H,15N HSQC; 298 K; ALDP at 5 and 10 molar ratio with 100 μM PEX19 CTD; PEX13 at 1:1.5 and 1:0.5 with 50 μM
T2 construct: we studied the human PEX19 CTD (residues 161–299) that includes the native C-terminus; hexahistidine (TEV-cleavable) (cleaved yes); made in house; host or cells: Escherichia coli BL21 (DE3); farnesylated in vitro with recombinant S. cerevisiae farnesyl transferase
T2 sequence (P40855 161-299): T1 sequence (P40855 161-299)

[4] = biological target: T3, farnesylated wild type PEX19 CTD (Homo sapiens, UniProt P40855); assay: Fluorescence polarization, ALDP peptide binding to farnesylated wild type PEX19 CTD
T3 construct: we studied the human PEX19 CTD (residues 161–299) that includes the native C-terminus; hexahistidine (TEV-cleavable) (cleaved yes); made in house; host or cells: Escherichia coli BL21 (DE3); farnesylated in vitro with recombinant S. cerevisiae farnesyl transferase
T3 sequence (P40855 161-299): T1 sequence (P40855 161-299)
Description: as §1, §2
standard deviations for triplicate measurements (n = 3).
as §3

[5] = test system: PEX19 CTD M255R; assay: Fluorescence polarization, ALDP peptide binding to PEX19 CTD M255R; parameters: species or system human; details: with or without farnesylation, FITC-labelled ALDP peptide 20 nM, triplicate (n = 3)
Description: as §1, §2, §3

[6] = NMR 13C secondary chemical shifts (peptide conformation); type: physicochemical; details: C-terminally extended version of the ALDP peptide with additional tryptophan (residue 68 to 82)
From the text: Phe71 aromatic ring protons
Residue number Leucine residue
Supplementary Figure 8: Intermolecular NOEs between PEX19 CTD and the ALDP peptide, and secondary structure of the latter. (a) 1H,1H plane of a 3D ω1-filtered, ω2-edited 13C-NOESY-HSQC experiment of farnesylated PEX19 CTD free (black) and bound to the ALDP peptide (red). Methyl and methylene protons of the unlabeled farnesyl group of the PEX19 CTD show NOEs with protons of the isotope-labeled farnesylated PEX19 CTD (black circles). In the presence of also unlabeled ALDP peptide additional intermolecular methyl-methyl and aliphatic-aromatic NOEs are observed (red circles and below). (b) NMR 13C secondary chemical shifts of a C-terminally extended […]
tion. (c) Due to signal overlap, 5 out of 7 spin systems for leucine residues were assigned. Nevertheless, also the leucines residues adopt a helical conformation.
(also on this page, place not known: (Leu75)(Leu76) (Leu81)(Leu82) 5 LeuC Cα- Cβ [p.p.m.] Cα- Cβ [p.p.m.] c ω2 ω1 1H (p.p.m.) ω1 1H (p.p.m.) QDPro273/Pro274 { - - { 5)

[7] = test system: PEX19 CTD M179R; assay: Fluorescence polarization, ALDP peptide binding to PEX19 CTD M179R; parameters: species or system human; details: with or without farnesylation, FITC-labelled ALDP peptide 20 nM, triplicate (n = 3)
Description: as §1, §2, §3

- binding to PEX19 CTD I195K [1]: impaired binding
- NMR spectral changes of non-farnesylated PEX19 CTD [2]: no significant spectral changes
- NMR chemical shift perturbations / line broadening of farnesylated PEX19 CTD [3]: distinct chemical shift perturbations
- affinity (in words) ([4]; farnesylated PEX19 CTD): micromolar affinity
- increase in affinity upon farnesylation of wild type PEX19 CTD ([4]; ratio farnesylated vs non-farnesylated wild type PEX19 CTD): seven
- binding to PEX19 CTD M255R [5]: impaired binding
- helical conformation of free peptide [6]: preformed helical conformation
- binding to PEX19 CTD M179R [7]: impaired binding
Sequence: AAKAGMNRVFLQRLL [ALDP peptide, peptide, residues 62–76 of human ALDP]
